Data as given in US20260250289A1, “BICYCLIC HETEROCYCLES AND THEIR USE AS WRN INHIBITORS” (Novartis AG, priority 2022, published 2026).

Key:
[1] = target: T1, WRN helicase (aa N517-P1238) (Homo sapiens, UniProt Q14191); assay: WRN ATPase assay (DNA dependent ATP hydrolysis, ADP-Glo); assay type: biochemical; details: 3 hours pre-incubation, 300 micromolar ATP, FLAP26 DNA; geometric mean of at least 2
T1 construct: The core helicase motif of the WRN protein (aa N517-P1238) was produced for this assay; His (N); ZZ (N); 3C protease cleavage site (N); made in house; host or cells: Sf21 insect cells (baculovirus; virus and BIICs made in SF9)
Excerpt: An ATPase assay was set up to measure the DNA dependent ATP hydrolysis activity of WRN helicase. This assay was used also to assess the inhibition properties of compounds of the invention on DNA dependent WRN ATPase activity.
The core helicase motif of the WRN protein (aa N517-P1238) was produced for this assay (protein production as described above). […] The ADP-Glo assay kit (Promega, Madison, WI) allowing the quantification of ADP produced in ATP hydrolysis reactions was used for setting up this assay.
Time course experiments were first performed in order to determine the best enzymatic assay conditions (including buffer conditions, reaction time and concentrations of protein, ATP and DNA substrates). A typical reaction consists of 10 nM WRN protein, 0.2 nM FLAP26, and 300 micromolar ATP in the following assay buffer: 30 mM Tris pH7.5, 2 mM MgCl2, 0.02% BSA, 50 mM NaCl, 0.1% pluronic F127 prepared in DNAse free water.
To evaluate the inhibition properties of compounds of the invention, serial dilutions were prepared in DMSO (10 half log dilutions from a 10 mM DMSO solution). […] The reaction was stopped with the addition of 5 microliters of the first ADP-Glo reagent and incubated for one hour to remove the excess amount of ATP. Afterwards, 10 microliters of ATP detection reagent was added and incubated for an additional hour before reading. Luminescence output was recorded using Tecan 1000 reader, with 5 minutes delay before reading. Each concentration of compound was tested in duplicates in the assay plate.
Following normalization of activity values for the wells to % inhibition (% inhibition=[(high control-sample)/(high control-low control)]×100), IC50 fitting was carried out from the duplicate determinations present on each plate according to [4]. Data analysis can also be carried out using commercially available software designed to derive IC50 values using 4-parameter fits (e.g. GraphPad Prism, XL fit). The reported IC50 values are the geometrical means of at least 2 independent replicates.

DLD1-WRN-KO cells = assay: Proliferation assay DLD1-WRN-KO (CellTiterGlo, off-target effects); assay type: cell-based; details: 96 hours, geometric mean of at least 2
Protocol: The WRN-knockdown insensitive colon carcinoma cell line DLD-1 (RRID: CVCL_0248) was obtained from the Korean Cell Line Bank (KCLB), and used to generate a derivative in which the endogenous WRN gene copies were knocked out by CRISPR-mediated editing using standard CRISPR methods. The resulting cell line, DLD1-WRN-KO, was used to assess potential off-target compound effects. […]
Three replicate plates were prepared for each compound treatment condition. In addition, one plate (termed “day 0”) was prepared to quantify the number of viable cells at the time of compound addition. Following overnight incubation at 37° C. in a humidified 5% CO2 atmosphere, eight 3-fold serial dilutions of a given compound stock (obtained at a concentration of 10 mM in DMSO and stored at 4° C.) were dispensed directly into each of the triplicate assay plates using a HP 300D non-contact Digital Dispenser (TECAN). The final concentration of DMSO was normalized to 0.1% in all wells. 96 hours after compound addition, cellular ATP levels as a surrogate for cell viability was assessed following addition of 50 microliters CellTiterGlo (Promega Cat #G7573) reagent and luminescence quantification on a MPLEX multi-mode plate-reader (TECAN) following a 10 minute incubation at room temperature. The number of viable cells in the “day 0” plate were quantified identically on the day of compound addition.
For data analysis, the assay background signal that was determined in wells containing medium, but no cells, was subtracted from all other data points prior to further calculations. The extent of growth inhibition and potential cell kill was assessed by comparing the ATP levels (measured using CellTiterGlo, Promega) in compound-treated cells with those present at the time of compound addition. […] 100%, 0% and −100% signify absence of growth inhibition, growth stasis, and complete cell kill, respectively. Compound concentrations leading to half-maximal growth inhibition (GI50) and residual cell viability at the highest tested compound concentration (Data (cmax), expressed in percent) were routinely calculated. Data analysis can also be carried out using commercially available software designed to derive IC50 values using 4-parameter fits (e.g. GraphPad Prism, XL fit). The reported GI50 values are the geometrical means of at least 2 independent replicates.

T1 sequence (Q14191 517-1238): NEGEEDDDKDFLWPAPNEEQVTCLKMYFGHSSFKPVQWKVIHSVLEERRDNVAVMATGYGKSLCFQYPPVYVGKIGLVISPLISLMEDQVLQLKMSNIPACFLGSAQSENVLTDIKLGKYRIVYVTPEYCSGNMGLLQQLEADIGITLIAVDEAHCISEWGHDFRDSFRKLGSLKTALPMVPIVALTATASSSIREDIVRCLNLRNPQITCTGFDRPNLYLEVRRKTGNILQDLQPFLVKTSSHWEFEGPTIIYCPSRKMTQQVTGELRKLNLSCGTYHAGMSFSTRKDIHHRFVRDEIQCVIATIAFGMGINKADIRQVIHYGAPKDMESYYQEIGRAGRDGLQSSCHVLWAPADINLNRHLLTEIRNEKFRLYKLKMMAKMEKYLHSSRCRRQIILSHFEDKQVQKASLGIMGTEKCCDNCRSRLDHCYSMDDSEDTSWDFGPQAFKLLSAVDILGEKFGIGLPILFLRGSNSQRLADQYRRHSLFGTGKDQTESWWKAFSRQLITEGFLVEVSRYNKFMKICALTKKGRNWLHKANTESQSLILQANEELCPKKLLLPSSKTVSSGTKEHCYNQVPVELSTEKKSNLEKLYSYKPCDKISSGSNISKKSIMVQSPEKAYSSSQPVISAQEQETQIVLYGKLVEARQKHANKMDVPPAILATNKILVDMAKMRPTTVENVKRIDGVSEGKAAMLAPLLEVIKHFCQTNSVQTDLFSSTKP

SMILES	IC50 [1] [nM]	GI50 (DLD1-WRN-KO cells) [nM]
COc1cc(F)cc(C(=O)N2CCN(c3c(C)n(CC(=O)Nc4ccc(C(F)(F)F)cc4)c4nc(C5=CCOCC5)nn4c3=O)CC2)c1N [Example 153, 2-(6-(4-(2-amino-5-fluoro-3-methoxybenzoyl)piperazin-1-yl)-2-(3,6-dihydro-2H-pyran-4-yl)-5-methyl-7-oxo-[1,2,4]triazolo[1,5-a]pyrimidin-4(7H)-yl)-N-(4-(trifluoromethyl)phenyl)acetamide]	100	5000
CC(=O)N1CCN(c2c(C)n(CC(=O)Nc3ccc(C(F)(F)F)cc3)c3nc(N4CCCCC4)nn3c2=O)CC1 [Example 111, 2-(6-(4-acetylpiperazin-1-yl)-5-methyl-7-oxo-2-(piperidin-1-yl)-[1,2,4]triazolo[1,5-a]pyrimidin-4(7H)-yl)-N-(4-(trifluoromethyl)phenyl)acetamide]	200	> 10000
Cc1c(N2CCN(C(=O)c3n[nH]c4ccccc34)CC2)c(=O)n2nc(C3=CCOCC3)nc2n1CC(=O)Nc1ccc(C(F)(F)F)cc1 [Example 154, 2-(6-(4-(1H-indazole-3-carbonyl)piperazin-1-yl)-2-(3,6-dihydro-2H-pyran-4-yl)-5-methyl-7-oxo-[1,2,4]triazolo[1,5-a]pyrimidin-4(7H)-yl)-N-(4-(trifluoromethyl)phenyl)acetamide]	100	8000
CC(=O)N1CCN(c2nc3n(CC(=O)Nc4ccc(Cl)cc4)c(C)c(N4CCN(C(=O)c5[nH]c(=O)[nH]c(=O)c5N)CC4)c(=O)n3n2)CC1 [Example 10, 2-(2-(4-acetylpiperazin-1-yl)-6-(4-(5-amino-2,6-dioxo-1,2,3,6-tetrahydropyrimidine-4-carbonyl)piperazin-1-yl)-5-methyl-7-oxo-[1,2,4]triazolo[1,5-a]pyrimidin-4(7H)-yl)-N-(4-chlorophenyl)acetamide]	90	> 10000
CC(=O)N1CCN(c2c(C)n(CC(=O)Nc3ccc(Cl)c(Cl)c3)c3nc(C4=CCN(C(=O)OC5CC/C=C/CCC5)CC4)nn3c2=O)CC1 (stereo not drawn) [Example 93, (E)-cyclooct-4-en-1-yl 4-(6-(4-acetylpiperazin-1-yl)-4-(2-((3,4-dichlorophenyl)amino)-2-oxoethyl)-5-methyl-7-oxo-4,7-dihydro-[1,2,4]triazolo[1,5-a]pyrimidin-2-yl)-3,6-dihydropyridine-1(2H)-carboxylate]	700	5000
CC(=O)N1CCN(c2c(C)n(CC(=O)Nc3ccc(C(F)(F)F)cc3)c3nc(C4=CCC5(CCO5)CC4)nn3c2=O)CC1 (stereo not drawn) [Example 117, 2-(6-(4-acetylpiperazin-1-yl)-5-methyl-7-oxo-2-(1-oxaspiro[3.5]non-6-en-7-yl)-[1,2,4]triazolo[1,5-a]pyrimidin-4(7H)-yl)-N-(4-(trifluoromethyl)phenyl)acetamide]	600	> 10000
CC(=O)N1CCN(c2nc3n(CC(=O)Nc4ccc(Cl)cc4)c(C)c(N4CCN(C(=O)c5nc[nH]c5C#N)CC4)c(=O)n3n2)CC1 [Example 7, 2-(2-(4-acetylpiperazin-1-yl)-6-(4-(5-cyano-1H-imidazole-4-carbonyl)piperazin-1-yl)-5-methyl-7-oxo-[1,2,4]triazolo[1,5-a]pyrimidin-4(7H)-yl)-N-(4-chlorophenyl)acetamide]	40	> 10000
CCOC(=O)C#Cc1nc2n(CC(=O)Nc3ccc(C(F)(F)F)cc3)c(C)c(N3CCN(C(C)=O)CC3)c(=O)n2n1 [Example 116, ethyl 3-(6-(4-acetylpiperazin-1-yl)-5-methyl-7-oxo-4-(2-oxo-2-((4-(trifluoromethyl)phenyl)amino)ethyl)-4,7-dihydro-[1,2,4]triazolo[1,5-a]pyrimidin-2-yl)propiolate]	500	5000
CC(=O)N1CCN(c2c(C)n(CC(=O)Nc3ccc(Cl)c(C(F)(F)F)c3)c3nc(C4=CCN(C(=O)OC(C)(C)C)CC4)nn3c2=O)CC1 [Example 74, tert-butyl 4-(6-(4-acetylpiperazin-1-yl)-4-(2-((4-chloro-3-(trifluoromethyl)phenyl)amino)-2-oxoethyl)-5-methyl-7-oxo-4,7-dihydro-[1,2,4]triazolo[1,5-a]pyrimidin-2-yl)-5,6-dihydropyridine-1(2H)-carboxylate]	200	600
CC(=O)N1CCN(c2nc3n(CC(=O)Nc4ccc(Cl)cc4)c(C)c(N4CCN(C(=O)c5n[nH]c(=O)[nH]5)CC4)c(=O)n3n2)CC1 [Example 8, 2-(2-(4-acetylpiperazin-1-yl)-5-methyl-7-oxo-6-(4-(5-oxo-4,5-dihydro-1H-1,2,4-triazole-3-carbonyl)piperazin-1-yl)-[1,2,4]triazolo[1,5-a]pyrimidin-4(7H)-yl)-N-(4-chlorophenyl)acetamide]	50	> 10000
CC(=O)N1CCN(c2c(C)n(CC(=O)Nc3ccc(Cl)c(Cl)c3)c3nc(-c4ccc(CN(C)C(=O)CCN=[N+]=[N-])cc4)nn3c2=O)CC1 [Example 86, N-(4-(6-(4-acetylpiperazin-1-yl)-4-(2-((3,4-dichlorophenyl)amino)-2-oxoethyl)-5-methyl-7-oxo-4,7-dihydro-[1,2,4]triazolo[1,5-a]pyrimidin-2-yl)benzyl)-3-azido-N-methylpropanamide]	70	> 10000
CC(=O)N1CCN(c2c(C)n(CC(=O)Nc3ccc(Cl)c(Cl)c3)c3nc(C4=CCN(C(=O)OC(C)(C)C)CC4)nn3c2=O)CC1 [Example 75, tert-butyl 4-(6-(4-acetylpiperazin-1-yl)-4-(2-((3,4-dichlorophenyl)amino)-2-oxoethyl)-5-methyl-7-oxo-4,7-dihydro-[1,2,4]triazolo[1,5-a]pyrimidin-2-yl)-5,6-dihydropyridine-1(2H)-carboxylate]	200	900
CC(=O)N1CCN(c2nc3n(CC(=O)Nc4ccc(Cl)cc4)c(C)c(N4CCN(C(=O)c5cnon5)CC4)c(=O)n3n2)CC1 [Example 9, 2-(6-(4-(1,2,5-oxadiazole-3-carbonyl)piperazin-1-yl)-2-(4-acetylpiperazin-1-yl)-5-methyl-7-oxo-[1,2,4]triazolo[1,5-a]pyrimidin-4(7H)-yl)-N-(4-chlorophenyl)acetamide]	80	> 10000
CC(=O)N1CCC(c2c(C)n(CC(=O)Nc3ccc(C(F)(F)F)cc3)c3nc(-c4ccccc4)nn3c2=O)CC1 [Example 143, 2-(6-(1-acetylpiperidin-4-yl)-5-methyl-7-oxo-2-phenyl-[1,2,4]triazolo[1,5-a]pyrimidin-4(7H)-yl)-N-(4-(trifluoromethyl)phenyl) acetamide]	–	> 10000
